What is called EC50 is the concentration at which the effect is half-maximal. As a reminder, the half-life is the time in which the quantity being followed falls by half. The Tmax is the time from dosing to the highest level. By bioavailability is commonly meant the share of a dose that reaches the circulation, judged against a reference dose that is usually intravenous. High values mean much systemic uptake, low ones little systemic uptake.

This note sets out measurements from US10253081B2, “Glucagon analogues” (Zealand Pharma A/S, priority 2012, dated 2019).

The target in data set [1] is T1, human glucagon receptor (Glucagon-R) (Homo sapiens, UniProt P47871).
T1 construct: expressed in transfected cells
T1 sequence (P47871 26-477): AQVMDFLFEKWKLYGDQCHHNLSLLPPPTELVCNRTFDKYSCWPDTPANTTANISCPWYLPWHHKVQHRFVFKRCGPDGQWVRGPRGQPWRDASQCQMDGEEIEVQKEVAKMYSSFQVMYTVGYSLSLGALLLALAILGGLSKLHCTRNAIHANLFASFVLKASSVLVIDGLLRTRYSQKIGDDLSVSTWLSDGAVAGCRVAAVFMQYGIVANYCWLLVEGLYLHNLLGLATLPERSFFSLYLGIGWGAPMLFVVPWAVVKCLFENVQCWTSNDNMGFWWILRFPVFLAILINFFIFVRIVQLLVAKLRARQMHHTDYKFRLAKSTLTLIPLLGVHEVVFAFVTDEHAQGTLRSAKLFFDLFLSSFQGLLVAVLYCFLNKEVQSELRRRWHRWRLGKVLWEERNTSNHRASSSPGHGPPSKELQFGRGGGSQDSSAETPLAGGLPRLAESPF
Nature of the data set: Glucagon receptor efficacy assay (cAMP AlphaScreen, CHO cells). Type of data set: cell-based. To be noted: Table 1A; CHO cells expressing human Glucagon-R, cAMP; read-out: EC50 hGCGR CHO-K1. The method in brief: (§1)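 Stably transfected CHO clones expressing human GLP-1R or glucagon receptor were treated with increasing peptide concentrations for 15 min at room temperature in KRBH containing 0.1 mM IBMX. After lysis, cAMP was quantified by AlphaScreen; EC50 and efficacy relative to GLP-1 or glucagon reference came from curve fitting.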

Data set [2] deals with T2, human glucagon-like peptide 1 receptor (GLP-1R) (Homo sapiens, UniProt P43220).
T2 construct: expressed in transfected cells
T2 sequence (P43220 24-463): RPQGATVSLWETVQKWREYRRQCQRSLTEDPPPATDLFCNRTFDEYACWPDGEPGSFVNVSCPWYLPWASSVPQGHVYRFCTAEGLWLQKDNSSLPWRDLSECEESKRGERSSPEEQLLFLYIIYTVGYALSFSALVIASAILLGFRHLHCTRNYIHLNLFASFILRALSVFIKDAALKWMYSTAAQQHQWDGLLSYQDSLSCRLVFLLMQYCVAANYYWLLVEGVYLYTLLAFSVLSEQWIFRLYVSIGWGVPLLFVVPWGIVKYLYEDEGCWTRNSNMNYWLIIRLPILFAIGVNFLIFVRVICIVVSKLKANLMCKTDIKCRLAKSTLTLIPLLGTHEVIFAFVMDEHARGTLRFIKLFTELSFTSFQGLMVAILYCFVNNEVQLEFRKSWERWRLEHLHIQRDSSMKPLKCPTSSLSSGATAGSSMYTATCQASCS
Nature of the data set: GLP-1 receptor efficacy assay (cAMP AlphaScreen, CHO cells). It counts as cell-based. The following applies: Table 1A; for EC50: CHO cells expressing human GLP-1-R, cAMP, read-out: EC50 hGLP-1R CHO-K1; for Ratio GLP-1/Glucagon: EC50 [GLP-1R]/EC50 [Glucagon-R]. In a few lines: as §1
A general note: Bead proximity is the source of the signal in Alpha formats.

Data set [3] can be described thus: Pharmacokinetic parameters after subcutaneous and intravenous administration to mice. The following applies: male, mouse, plasma, 20 nmol/kg, C57Bl/6J mice; for half-life: read-out: Terminal half life (converted); for MRT: read-out: Mean Residence Time. It counts as in vivo. In a few lines: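 Non-compartmental PK from LC-MS/MS plasma levels, sampled 0.5–24 h after subcutaneous and 10 min–24 h after intravenous dosing. Dose 20 nmol/kg (4 μM in pH 7.4 phosphate-buffered PBS) into male C57Bl/6J mice, 8–11 weeks old.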

The nature of data set [4]: Oral glucose tolerance test (OGTT). To be noted: blood glucose AUC 0-120 min, 10 nmol/kg s.c. 4 h before oral glucose 2 g/kg. It counts as in vivo, C57BL/6J mice. The method in brief:
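Male C57BL/6J mice (n=7) were fasted for 10 h and given peptide at 10 nmol/kg s.c. in phosphate-buffered saline 4 h before an oral glucose bolus of 2 g/kg; controls got vehicle. Tail-blood glucose was read by glucometer up to 120 min, and AUC was computed by the trapezoidal rule without baseline correction.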

Molecules are shown by their SMILES. Where two headings read alike, the source gives them in different places. *1 amine or outer side, *2 acyl side, *3 side chain or, on linkers, in order; H or OH if unused. Where a SMILES comes first, the peptide text is derived from it. Side-chain parts run from the residue outwards. [ ]: non-standard residue; d: D form. The star is where a group is joined. γGlu = O=C(O)[C@H](CCC(=O)[*:2])N[*:1]; Palmitoyl = CCCCCCCCCCCCCCCC(=O)*; Aib = CC(C)(N)C(=O)O

With `CCCCCCCCCCCCCCCC(=O)N[C@@H](CCC(=O)NCCCC[C@H](NC(=O)[C@H](CO)NC(=O)[C@H](CC(=O)O)NC(=O)[C@H](CC(C)C)NC(=O)[C@H](Cc1ccc(O)cc1)NC(=O)[C@H](CCCCN)NC(=O)[C@H](CO)NC(=O)[C@H](Cc1ccc(O)cc1)NC(=O)[C@H](CC(=O)O)NC(=O)[C@H](CO)NC(=O)[C@@H](NC(=O)[C@H](Cc1ccccc1)NC(=O)[C@@H](NC(=O)CNC(=O)[C@H](CCC(N)=O)NC(=O)[C@H](CO)NC(=O)[C@@H](N)Cc1c[nH]cn1)[C@@H](C)O)[C@@H](C)O)C(=O)N[C@@H](C)C(=O)N[C@@H](C)C(=O)N[C@@H](Cc1c[nH]cn1)C(=O)N[C@@H](CC(=O)O)C(=O)N[C@@H](Cc1ccccc1)C(=O)N[C@H](C(=O)N[C@@H](CCC(=O)O)C(=O)N[C@@H](Cc1c[nH]c2ccccc12)C(=O)N[C@@H](CC(C)C)C(=O)N[C@@H](CC(C)C)C(=O)N[C@@H](CCCNC(=N)N)C(=O)O)C(C)C)C(=O)O` [Compound 9, H-HSQGTFTSDYSKYLDS-K(Hexadecanoyl-isoGlu)-AAHDFVEWLLR-OH] (H-HSQGTFTSDYSKYLDSK([γGlu-Palmitoyl])AAHDFVEWLLR-OH), the EC50 in data set [1] came to 0.25 nM. For the same molecule, in data set [2], the EC50 stood at 0.35 nM and the “Ratio GLP-1/Glucagon” value was found to be 1.40. Besides, in data set [3] (IV), the clearance was 0.638 mL/min/kg and the half-life was 54 min. Moreover, in data set [3] (SC), the time to peak (Tmax) was found to be 2 h, the bioavailability stood at 34%, the MRT worked out at 4.7 h and the half-life is 174 min. In data set [4], the “AUC (% Ctrl)” value was 57 % Ctrl.

`CCCCCCCCCCCCCCCC(=O)N[C@@H](CCC(=O)NCCCC[C@H](NC(=O)[C@H](CCC(=O)O)NC(=O)[C@H](CC(=O)O)NC(=O)[C@H](CC(C)C)NC(=O)[C@H](Cc1ccc(O)cc1)NC(=O)[C@H](CCCCN)NC(=O)[C@H](CO)NC(=O)[C@H](Cc1ccc(O)cc1)NC(=O)[C@H](CC(=O)O)NC(=O)[C@H](CO)NC(=O)[C@@H](NC(=O)[C@H](Cc1ccccc1)NC(=O)[C@@H](NC(=O)CNC(=O)[C@H](CCC(N)=O)NC(=O)[C@H](CO)NC(=O)[C@@H](N)Cc1c[nH]cn1)[C@@H](C)O)[C@@H](C)O)C(=O)N[C@@H](C)C(=O)N[C@@H](C)C(=O)N[C@@H](Cc1c[nH]cn1)C(=O)N[C@@H](CCC(=O)O)C(=O)N[C@@H](Cc1ccccc1)C(=O)N[C@H](C(=O)N[C@@H](CCC(=O)O)C(=O)N[C@@H](Cc1c[nH]c2ccccc12)C(=O)N[C@@H](CC(C)C)C(=O)N[C@@H](CCC(=O)O)C(=O)N[C@@H](CO)C(=O)N[C@@H](C)C(N)=O)C(C)C)C(=O)O` [Compound 10, H-HSQGTFTSDYSKYLDE-K(Hexadecanoyl-isoGlu)-AAHEFVEWLESA-NH2] (H-HSQGTFTSDYSKYLDEK([γGlu-Palmitoyl])AAHEFVEWLESA-NH2): the EC50 in data set [1] turned out to be 0.23 nM. Also, in data set [2], the EC50 was determined as 0.23 nM and the “Ratio GLP-1/Glucagon” value came to 1.00. In data set [3] (IV), the clearance was 0.355 mL/min/kg and the half-life was 180 min. Also, in data set [3] (SC), the time to peak (Tmax) is 2 h, the bioavailability stood at 80%, the MRT is 6.5 h and the half-life was 222 min. In addition, the “AUC (% Ctrl)” value in data set [4] stood at 46 % Ctrl.

Regarding `CCCCCCCCCCCCCCCC(=O)N[C@@H](CCC(=O)NCCCC[C@H](NC(=O)[C@H](CO)NC(=O)[C@H](CC(=O)O)NC(=O)[C@H](CC(C)C)NC(=O)[C@H](Cc1ccc(O)cc1)NC(=O)[C@H](CCCNC(=N)N)NC(=O)[C@H](CO)NC(=O)[C@H](Cc1ccc(O)cc1)NC(=O)[C@H](CC(=O)O)NC(=O)[C@H](CO)NC(=O)[C@@H](NC(=O)[C@H](Cc1ccccc1)NC(=O)[C@@H](NC(=O)CNC(=O)[C@H](CCC(N)=O)NC(=O)[C@H](CO)NC(=O)[C@@H](N)Cc1c[nH]cn1)[C@@H](C)O)[C@@H](C)O)C(=O)N[C@@H](C)C(=O)N[C@@H](C)C(=O)N[C@@H](Cc1c[nH]cn1)C(=O)N[C@@H](CC(=O)O)C(=O)N[C@@H](Cc1ccccc1)C(=O)N[C@H](C(=O)N[C@@H](CCC(=O)O)C(=O)N[C@@H](Cc1c[nH]c2ccccc12)C(=O)N[C@@H](CC(C)C)C(=O)N[C@@H](CC(C)C)C(=O)N[C@@H](CO)C(=O)N[C@@H](C)C(N)=O)C(C)C)C(=O)O` [Compound 12, H-HSQGTFTSDYSRYLDS-K(Hexadecanoyl-isoGlu)-AAHDFVEWLLSA-NH2] (H-HSQGTFTSDYSRYLDSK([γGlu-Palmitoyl])AAHDFVEWLLSA-NH2), the EC50 in data set [1] turned out to be 0.43 nM. In addition, in data set [2], the concentration for a half-maximal effect (EC50) was determined as 0.37 nM and the “Ratio GLP-1/Glucagon” value was 0.86. In data set [3] (IV), the clearance was 0.225 mL/min/kg and the half-life was 246 min. Besides, in data set [3] (SC), the time of peak concentration (Tmax) amounted to 6 h, the bioavailability came out at 43%, the MRT amounted to 8.3 h and the half-life is 258 min. In addition, the “AUC (% Ctrl)” value in data set [4] is given as 56 % Ctrl.

Turning to `CCCCCCCCCCCCCCCC(=O)N[C@@H](CCC(=O)NCCCC[C@H](NC(=O)[C@H](CO)NC(=O)[C@H](CC(=O)O)NC(=O)[C@H](CC(C)C)NC(=O)[C@H](Cc1ccc(O)cc1)NC(=O)[C@H](CCCCN)NC(=O)[C@H](CO)NC(=O)[C@H](Cc1ccc(O)cc1)NC(=O)[C@H](CC(=O)O)NC(=O)[C@H](CO)NC(=O)[C@@H](NC(=O)[C@H](Cc1ccccc1)NC(=O)[C@@H](NC(=O)CNC(=O)[C@H](CCC(N)=O)NC(=O)C(C)(C)NC(=O)[C@@H](N)Cc1c[nH]cn1)[C@@H](C)O)[C@@H](C)O)C(=O)N[C@@H](C)C(=O)N[C@@H](C)C(=O)N[C@@H](Cc1c[nH]cn1)C(=O)N[C@@H](CC(=O)O)C(=O)N[C@@H](Cc1ccccc1)C(=O)N[C@H](C(=O)N[C@@H](CCC(=O)O)C(=O)N[C@@H](Cc1c[nH]c2ccccc12)C(=O)N[C@@H](CC(C)C)C(=O)N[C@@H](CC(C)C)C(=O)N[C@@H](CO)C(=O)N[C@@H](C)C(=O)O)C(C)C)C(=O)O` [Compound 13, H-H-Aib-QGTFTSDYSKYLDS-K(Hexadecanoyl-isoGlu)-AAHDFVEWLLSA-OH], the concentration giving a half-maximal response (EC50) in data set [1] came to 0.98 nM. Also, in data set [2], the half-maximal effective concentration (EC50) is 0.51 nM and the “Ratio GLP-1/Glucagon” value amounted to 0.52. For the same molecule, in data set [3] (IV), the clearance is 0.148 mL/min/kg and the half-life was 378 min. For the same molecule, in data set [3] (SC), the time of peak concentration (Tmax) was 4 h, the bioavailability is 76%, the MRT stood at 14.7 h and the half-life is 516 min. Also, in data set [4], the “AUC (% Ctrl)” value stood at 55 % Ctrl.

In the case of `CCCCCCCCCCCCCCCC(=O)N[C@@H](CCC(=O)NCCCC[C@H](NC(=O)[C@H](CCC(=O)O)NC(=O)[C@H](CC(=O)O)NC(=O)[C@H](CC(C)C)NC(=O)[C@H](Cc1ccc(O)cc1)NC(=O)[C@H](CCCCN)NC(=O)[C@H](CO)NC(=O)[C@H](Cc1ccc(O)cc1)NC(=O)[C@H](CC(=O)O)NC(=O)[C@H](CO)NC(=O)[C@@H](NC(=O)[C@H](Cc1ccccc1)NC(=O)[C@@H](NC(=O)CNC(=O)[C@H](CCC(N)=O)NC(=O)C(C)(C)NC(=O)[C@@H](N)Cc1c[nH]cn1)[C@@H](C)O)[C@@H](C)O)C(=O)N[C@@H](CCCNC(=N)N)C(=O)N[C@@H](C)C(=O)N[C@@H](CCCCN)C(=O)N[C@@H](CC(=O)O)C(=O)N[C@@H](Cc1ccccc1)C(=O)N[C@H](C(=O)N[C@@H](CCC(=O)O)C(=O)N[C@@H](Cc1c[nH]c2ccccc12)C(=O)N[C@@H](CC(C)C)C(=O)N[C@@H](CC(C)C)C(=O)N[C@@H](CO)C(=O)N[C@@H](C)C(=O)O)[C@@H](C)CC)C(=O)O` [Compound 14, H-H-Aib-QGTFTSDYSKYLDE-K(Hexadecanoyl-isoGlu)-RAKDFIEWLLSA-OH] (H-H[Aib]QGTFTSDYSKYLDEK([γGlu-Palmitoyl])RAKDFIEWLLSA-OH), in data set [1], the EC50 came out at 0.54 nM. In addition, in data set [2], the EC50 amounted to 0.53 nM and the “Ratio GLP-1/Glucagon” value came to 0.98. Also, in data set [3] (IV), the clearance was 0.225 mL/min/kg and the half-life was 372 min. In data set [3] (SC), the time of peak concentration (Tmax) is 4 h, the bioavailability came to 64%, the MRT was determined as 12.2 h and the half-life was 366 min. The “AUC (% Ctrl)” value in data set [4] came out at 59 % Ctrl.
